# Data from ChEMBL document CHEMBL5120802, “Kumemicinones A-G, Cytotoxic Angucyclinones from a Deep Sea-Derived Actinomycete of the Genus Actinomadura” (J Nat Prod, 2022).
# Assay: Cytotoxicity against mouse P388 cells assessed as reduction in cell viability measured after 72 hrs by XTT assay
# Format: functional, cell-based
# Conditions: P388, 72 h
row,SMILES,IC50 [µM]
1,CC1=C[C@@H]2O[C@]34CC[C@](O)(C1)[C@H]2[C@]3(O)[C@@H](O)c1cccc(O)c1C4=O,28.6
2,CC1=CC(=O)C2=C3[C@@H](O)c4cccc(O)c4C(=O)[C@]3(O)CC[C@]2(O)C1,12
3,CC1=C[C@@H](O)[C@@H]2C(=O)[C@@]3(CC[C@]2(O)C1)C(=O)c1c(O)cccc1[C@H]3O,53.3
4,CC1=C[C@@H](O)[C@H]2[C@](O)(CC[C@]3(Oc4cccc5c4C(=O)[C@]46CC[C@]7(O)CC(C)=C[C@@H](O)[C@@H]7[C@]4(O6)[C@H]5O)C(=O)c4c(O)cccc4[C@H](O)[C@@]23O)C1,9.7
5,C[C@@]1(O)C=C[C@H]2[C@](O)(CC[C@]34O[C@]23[C@@H](O)c2cccc(O)c2C4=O)C1,7.6
6,CC1=C[C@@H](O)[C@H]2[C@](O)(CC[C@]34O[C@]23[C@@H](O)c2cccc(O)c2C4=O)C1,1.7
7,Cc1ccc2c(c1)CC[C@]1(S[C@]34CCc5cc(C)ccc5[C@]3(O)[C@@H](O)c3cccc(O)c3C4=O)C(=O)c3c(O)cccc3[C@H](O)[C@@]21O,6.1
8,CC1=C[C@@H](O)[C@H]2[C@](O)(CC[C@]34O[C@]23[C@@H](O)c2cccc(O[C@]35CC[C@]6(O)C[C@@](C)(O)C=C[C@@H]6[C@]3(O)[C@@H](O)c3cccc(O)c3C5=O)c2C4=O)C1,10.7
9,C[C@]1(O)C=C[C@H]2[C@](O)(CC[C@]34O[C@]23[C@@H](O)c2cccc(O)c2C4=O)C1,1.8
